According to patent US5703070A, “Indole, indazole and benzisoxazole compounds” (Adir et Compagnie, priority 1995, dated 1997):
pKi: −log10 of the molar value. Like-named read-outs stand apart in the source and are kept apart here.

How the values were obtained:
5-HT2C receptors [1] = molecular target: T1, 5-HT2C receptors (Sus scrofa, UniProt K7GSR7); assay: biochemical; assay type: binding; conditions: Receptor profile Ki, 5-HT2C
T1 construct: from tissue; host or cells: pig choroid plexus (own knowledge of the cited method)
T1 sequence (K7GSR7 1-457): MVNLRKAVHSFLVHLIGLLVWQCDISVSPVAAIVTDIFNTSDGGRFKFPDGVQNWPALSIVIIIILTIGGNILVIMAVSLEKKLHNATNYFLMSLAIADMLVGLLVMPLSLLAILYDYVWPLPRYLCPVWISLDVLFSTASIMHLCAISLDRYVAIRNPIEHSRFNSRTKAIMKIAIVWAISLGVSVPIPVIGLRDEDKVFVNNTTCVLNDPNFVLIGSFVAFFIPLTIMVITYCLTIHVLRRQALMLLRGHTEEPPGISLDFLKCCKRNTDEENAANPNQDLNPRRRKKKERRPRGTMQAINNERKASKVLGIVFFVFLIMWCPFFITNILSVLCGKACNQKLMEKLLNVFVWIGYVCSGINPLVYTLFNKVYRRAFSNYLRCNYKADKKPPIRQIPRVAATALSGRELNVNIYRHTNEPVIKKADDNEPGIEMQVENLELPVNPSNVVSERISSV
Method: (§1) The interaction of these compounds with various receptors was determined by using conventional binding studies, such as those described by M. J. Millan et at. […] The affinities of the compounds are expressed in Ki.

5-HT2C receptors [2] = assay: biochemical; assay type: binding; conditions: ratio of Ki values D2 / 5-HT2C
Method: as §1

D2 receptors = molecular target: T2, D2 receptors (Rattus norvegicus, UniProt P61169); assay: biochemical; assay type: binding
T2 construct: from tissue; host or cells: rat striatum (own knowledge of the cited method)
T2 sequence (P61169 whole entry): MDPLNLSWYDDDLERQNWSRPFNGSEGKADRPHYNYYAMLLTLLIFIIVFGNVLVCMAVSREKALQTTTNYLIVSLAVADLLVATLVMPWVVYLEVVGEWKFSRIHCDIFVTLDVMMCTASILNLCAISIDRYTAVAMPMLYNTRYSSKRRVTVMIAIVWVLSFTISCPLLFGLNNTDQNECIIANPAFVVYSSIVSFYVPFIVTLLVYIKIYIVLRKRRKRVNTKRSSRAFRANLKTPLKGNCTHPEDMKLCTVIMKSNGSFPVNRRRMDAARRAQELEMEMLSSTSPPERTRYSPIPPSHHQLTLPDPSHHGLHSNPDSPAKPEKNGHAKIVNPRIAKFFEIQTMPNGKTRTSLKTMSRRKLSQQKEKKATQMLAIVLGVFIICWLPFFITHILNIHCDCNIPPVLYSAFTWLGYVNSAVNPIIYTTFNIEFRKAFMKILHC
Method: as §1

5-HT1A receptors = 5-HT1A receptors (Rattus norvegicus, UniProt P19327); assay: biochemical; assay type: binding; conditions: for D2 /5-HT1A: ratio of Ki values D2 / 5-HT1A
Chain of 5-HT1A receptors (P19327 whole entry): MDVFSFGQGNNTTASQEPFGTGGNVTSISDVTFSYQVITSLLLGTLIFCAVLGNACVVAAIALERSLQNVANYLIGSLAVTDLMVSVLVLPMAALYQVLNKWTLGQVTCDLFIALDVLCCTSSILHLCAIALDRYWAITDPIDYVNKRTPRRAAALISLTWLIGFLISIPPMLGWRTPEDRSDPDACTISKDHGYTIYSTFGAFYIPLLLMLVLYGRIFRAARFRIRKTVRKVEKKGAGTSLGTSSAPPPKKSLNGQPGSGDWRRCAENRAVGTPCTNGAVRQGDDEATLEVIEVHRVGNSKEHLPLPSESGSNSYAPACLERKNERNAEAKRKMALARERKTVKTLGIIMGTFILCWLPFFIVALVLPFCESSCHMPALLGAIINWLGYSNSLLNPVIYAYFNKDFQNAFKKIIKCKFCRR
Method: as §1

in vivo = conditions: rat, sc
[3] = test system: mesolimbic dopaminergic pathways; assay: Verticalization test with apomorphine in mice (antipsychotic properties); conditions: for ED50: Mus musculus, sc; for Verticalization (Apomorphine) ID50: mice
5-HT2A receptors = molecular target: T3, 5-HT2A receptors (Rattus norvegicus, UniProt P14842); assay: Conventional binding studies, receptor profile: 5-HT2A; conditions: for pKi: Receptor profile Ki, 5-HT2A; for D2 /5-HT2A: ratio of Ki values D2 / 5-HT2A
T3 construct: from tissue; host or cells: rat frontal cortex (own knowledge of the cited method)
T3 sequence (P14842 whole entry): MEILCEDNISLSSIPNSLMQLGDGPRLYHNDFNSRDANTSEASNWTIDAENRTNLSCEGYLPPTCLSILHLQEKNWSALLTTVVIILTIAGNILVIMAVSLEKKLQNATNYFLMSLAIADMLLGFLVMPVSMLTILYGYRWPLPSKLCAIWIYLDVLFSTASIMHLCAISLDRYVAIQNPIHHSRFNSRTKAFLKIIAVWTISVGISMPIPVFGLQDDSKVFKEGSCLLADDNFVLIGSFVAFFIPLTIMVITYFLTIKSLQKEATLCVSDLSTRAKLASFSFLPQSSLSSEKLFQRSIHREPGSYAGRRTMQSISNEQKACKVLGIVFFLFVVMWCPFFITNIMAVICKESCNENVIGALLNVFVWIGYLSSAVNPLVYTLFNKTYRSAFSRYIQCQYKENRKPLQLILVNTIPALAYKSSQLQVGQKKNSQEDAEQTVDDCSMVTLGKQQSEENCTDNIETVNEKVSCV
Method: as §1

[4] = test system: nigrostriatal dopaminergic transmission; assay: Catalepsy in rats (extrapyramidal potential); conditions: for ED50 /ID50 Ratio: catalepsy ED50 (rats) / verticalization ID50 (mice), hydrochloride
schizophrenia = conditions: cited from earlier work; for extrapyramidal syndrome: in vivo
[5] = test system: nigrostriatal dopaminergic transmission; conditions: background, literature; cited from earlier work
[6] = read-out: Receptor profile Ki, D2
[7] = read-out: Receptor profile Ki, 5-HT1A
[8] = read-out: Verticalization (Apomorphine) ID50, mice, s.c. 30 min before test, apomorphine 0.75 mg/kg s.c.
[9] = s.c. 30 min before test, apomorphine 0.75 mg/kg s.c., hydrochloride
[10] = read-out: Verticalization (Apomorphine) ID50

| SMILES | pKi (5-HT2C receptors [1]) | D2 /5-HT2C (5-HT2C receptors [2]) | pKi (D2 receptors; [6]) | D2 /5-HT1A (5-HT1A receptors) | pKi (5-HT1A receptors; [7]) | ED50 at 0.5 h (in vivo) [mg/kg] | selectivity ratio (in vivo) | ED50 [3, 8] [mg/kg] | pKi (5-HT2A receptors) | D2 /5-HT2A (5-HT2A receptors) | further results |
| --- | --- | --- | --- | --- | --- | --- | --- | --- | --- | --- | --- |
| COc1ccc2[nH]cc(CCCN3CCC(CC(=O)c4ccc(F)cc4)C3)c2c1.Cl (racemic) [Ex. 3, 3-{3-[3-(4-Fluorobenzoylmethyl)pyrrolidin-1-yl]propyl}-5-methoxyindole hydrochloride] | 8.48 | 1.6 | 8.28 | 5.2 | 9.00 | > 40 | > 266 | 0.15 | 9.00 | 5.2 |  |
| COc1ccc2[nH]cc(CCCN3CCC(CC(=O)c4ccc(F)cc4)C3)c2c1.Cl (centres unmarked) [Ex. 5, 3-{3-[3-(4-fluorobenzoylmethyl)pyrrolidin-1-yl]propyl}-5-methoxyindole hydrochloride] | 8.42 |  | 8.15 |  | 9.40 |  |  |  | 8.77 |  | D2 /5-HT2C (5-HT2C receptors [2]; hydrochloride): 1.9; D2 /5-HT1A (5-HT1A receptors; hydrochloride): 17.8; Verticalization (Apomorphine) ID50 [3, 9]: 0.13 mg/kg/S.C.; ED50 /ID50 Ratio [4]: > 307; Induction of catalepsy ED50 ([4]; rats, s.c. 30 min before test, dose inducing catalepsy for mean 15 seconds): > 40.0 mg/kg/S.C.; D2 /5-HT2A (5-HT2A receptors; hydrochloride): 4.2 |
| O=C(CCCN1CCC(O)(c2ccc(Cl)cc2)CC1)c1ccc(F)cc1 [Haloperidol] |  |  |  |  |  | 0.14 |  |  |  |  | ED50 [3, 10]: 0.01 mg/kg; extrapyramidal syndrome (schizophrenia): cause an extrapyramidal syndrome of Parkinsonian type; treatment of productive symptoms (schizophrenia; such as fantasizing and hallucinations): fairly well; effectiveness with respect to deficiency symptoms (schizophrenia; such as social withdrawal): very low |
| COc1ccc2[nH]cc(CCN3CCC(CC(=O)c4ccc(F)cc4)C3)c2c1.Cl (centres unmarked) [Ex. 1, 3-{2-[3-(4-Fluorobenzoylmethyl)pyrrolidin-1-yl]ethyl}-5-methoxyindole hydrochloride] | 7.30 | 22 |  | 183 |  | > 40 | > 129 |  | 8.80 | 69 | pKi (D2 receptors): 6.96; pKi (5-HT1A receptors; Receptor profile Ki, 5-HT1A): 9.22; ED50 [3, 10]: 0.31 mg/kg |
| COc1ccc2[nH]cc(CCCN3CCCC(C(=O)c4ccc(F)cc4)CC3)c2c1.Cl (centres unmarked) [Ex. 7, 3-{3-[4-(4-Fluorobenzoyl)perhydroazepin-1-yl]propyl}-5-methoxyindole hydrochloride] | 6.93 | 0.4 | 7.36 | 62 | 9.15 | > 40 | > 80 | 0.5 | 8.57 | 1.6 |  |
| CN1CCN(C2=Nc3cc(Cl)ccc3Nc3ccccc32)CC1 [Clozapine] |  |  |  |  |  | > 40 |  |  |  |  | Verticalization (Apomorphine) ID50 ([3]; s.c. 30 min before test, apomorphine 0.75 mg/kg s.c.): 2.2 mg/kg/S.C.; toxicity (schizophrenia; general treatment of schizophrenic conditions): due to its toxicity, clozapine cannot be envisaged in the general treatment of schizophrenic conditions; extrapyramidal syndrome (schizophrenia): virtually no extrapyramidal syndrome; cataleptogenic effect [5]: absence of cataleptogenic effect |
| COc1ccc2c(c1)c(CCCN1CCC(CC(=O)c3ccc(F)cc3)C1)cn2C.Cl (centres unmarked) [Ex. 6, 1-Methyl-3-{3-[3-(4-fluorobenzoylmethyl)pyrrolidin-1-yl]propyl}-5-methoxyindole hydrochloride] | 7.77 | 0.9 | 7.81 | 0.4 | 7.41 |  |  |  | 8.37 | 3.6 |  |
| Cl.O=C(CC1CCN(CCCc2c[nH]c3ccc(F)cc23)C1)c1ccc(F)cc1 (centres unmarked) [Ex. 8, 3-{3-[3-(4-Fluorobenzoylmethyl)pyrrolidin-1-yl]propyl}-5-fluoroindole hydrochloride] | 7.72 | 0.5 | 8.02 | 0.8 | 7.91 | > 40 | > 80 | 0.5 | 8.18 | 1.4 |  |
| COc1ccc2[nH]cc(CCCN3CCC(CC(=O)c4ccc(F)cc4)C3)c2c1.Cl (centres unmarked) [Ex. 4, 3-{3-[3-(4-fluorobenzoylmethyl)pyrrolidin-1-yl]propyl}-5-methoxyindole hydrochloride] | 8.40 |  | 8.20 |  | 8.96 | > 40 |  |  | 8.92 |  | D2 /5-HT2C (5-HT2C receptors [2]; hydrochloride): 1.6; D2 /5-HT1A (5-HT1A receptors; hydrochloride): 5.7; Verticalization (Apomorphine) ID50 [3, 9]: 0.3 mg/kg/S.C.; ED50 /ID50 Ratio [4]: > 133; D2 /5-HT2A (5-HT2A receptors; hydrochloride): 5.2 |
| COc1ccc2c(c1)c(CCN1CCC(CC(=O)c3ccc(F)cc3)C1)cn2C.Cl (centres unmarked) [Ex. 2, 1-Methyl-3-{2-[3-(4-fluorobenzoylmethyl)pyrrolidin-1-yl]ethyl}-5-methoxyindole hydrochloride] | 7.80 | 8.3 | 6.88 | 0.9 | 6.85 | > 40 | > 32 | 1.25 | 8.89 | 101 |  |
| COc1ccc2[nH]cc(CCCN3CCC(C(=O)c4ccc(F)cc4)CC3)c2c1.Cl [Ref. A, 3-{3-[4-(4-Fluorobenzoyl)piperidin-1-yl]propyl}-5-methoxyindole hydrochloride, reference compound] | 7.01 | 0.1 | 7.96 | 2 | 8.25 | 1.4 | 14 | 0.1 | 8.07 | 1.3 |  |
| COc1ccc2[nH]cc(CCCN3CCC(Cc4noc5cc(F)ccc45)C3)c2c1.Cl (centres unmarked) [Ex. 9, 6-Fluoro-3-{1-[3-(5-methoxyindol-3-yl)propyl]pyrrolidin-3-ylmethyl}-1,2-benzisoxazole hydrochloride] | 8.10 | 13 | 7.01 | 143 | 9.15 | > 40 | > 40 | 1 | 8.49 | 31 |  |
